These are literature values, as cited in patent US20070160648A1, “Methods for treating otic disorders” (pSivida Inc., priority 2002, published 2007).

For `[H]/N=C(/N)N[C@H]1[C@H](O)[C@@H](O)[C@H](O[C@@H]2O[C@@H](C)[C@](O)(C=O)[C@H]2O[C@@H]2O[C@@H](CO)[C@H](O)[C@@H](O)[C@@H]2NC)[C@@H](N/C(N)=N\[H])[C@@H]1O` [streptomycin], the “patients displaying some vestibular impairment” value (one gram of streptomycin daily for 60 to 120 days) is listed as 25%. The “incidence of vestibular impairment” value (two grams per day) is 75%.
